# Assay results published in EP0830136B1, “NEW CRY[…] […]” (priority 1995, dated 1996).
# Like-named read-outs stand apart in the source and are kept apart here.
# Tests used:
# Colon 26 = test: In vivo activity, Colon 26 experiment; parameters: species or system mice
# Experimental: Gross log kill is defined as T-C/3.2 Td where T is the median time in days for the tumors of the treated group to reach 750mg, C is the median time in days for the tumors of the control group to reach 750mg, and Td is the tumor volume doubling time (T.H. Corbett et al., Cytotoxic Anticancer Drugs: Models and Concepts for Drug Discovery and Development, pp 35-87; Kluwer: Norwell, 1992).
# tumors implanted in mice = settings: for in vivo antitumor activity: statement in words
# [1] = system: human tumor cell lines KB and LoVo; test: In vitro cytotoxicity, KB and LoVo; settings: read-out: cytotoxicities IC50's
# [2] = system: A-10 rat aortic smooth muscle cells; test: Immunofluorescence of cytoskeleton in A-10 cells; format: cell-based; settings: A-10 cells, 24 hours; 2µM cytochalasin B, 100nM vinblastine or 10nM cryptophycin compounds
# Experimental: A-10 cells were grown to near-confluency on glass coverslips in BME/10% FBS. Compounds in PBS were added to the indicated final concentrations and cells were incubated for an additional 24 hours. For the staining of microtubules and intermediate filaments, the cells were fixed with cold methanol and incubated with PBS containing 10% calf serum to block nonspecific binding sites. Cells were then incubated at 37°C for 60 min with either monoclonal anti-β-tubulin or with monoclonal anti-vimentin at dilutions recommended by the manufacturer. Bound primary antibodies were subsequently visualized by a 45-minute incubation with fluorescein-conjugated rabbit antimouse IgG. The coverslips were mounted on microscope slides and the fluorescence patterns were examined and photographed using a Zeiss Photomicroscope ill equipped with epifluorescence optics for fluorescein. […] PBS containing 100nM TRITC-phalloidin was then added and the mixture was allowed to incubate for 45 min at 37° C. The cells were washed rapidly three times with PBS before the coverslips were mounted and immediately photographed as described above.
# Panc 03 = settings: SC Tumor P03
# [3] = Exp # 1878, 9 Inj. IV, 82 mg/kg TD
# [4] = Exp # 1843, 7 Inj. IV, 23 mg/kg TD
structure (smiles),measurement,setting,value
COc1ccc(C[C@H]2NC(=O)/C=C/C[C@@H]([C@H](C)[C@@H](O)[C@@H](Cl)c3ccccc3)OC(=O)[C@H](CC(C)C)OC(=O)C(C)(C)CNC2=O)cc1Cl [Cryptophycin 55],gross log kill value,Colon 26,1.2
same,total dosage required in vivo relative to comparator,"tumors implanted in mice; mouse, in vivo",three times the total dosage compared with Cryptophycin 8
same,in vivo antitumor activity,tumors implanted in mice,active in vivo
same,IC50,[1],0.033 to 0.047 nM
COc1ccc(C[C@H]2NC(=O)/C=C/C[C@@H]([C@H](C)[C@@H](O)[C@@H](O)c3ccccc3)OC(=O)[C@H](CC(C)C)OC(=O)[C@H](C)CNC2=O)cc1Cl [Cryptophycin 15],in vivo antitumor activity,tumors implanted in mice,antitumor activity is greatly diminished
"C=C1[C@@H](C)[C@H]2[C@H](Cc3ccccc3)NC(=O)[C@]23OC(=O)/C=C/[C@H](O)CCC[C@@H](C)C/C=C/[C@H]3[C@@H]1O [Cytochalasin B, cytochalasin B]",effect on microfilaments,[2],complete depolymerization of microfilaments
same,effect on microtubules,[2],did not affect the distribution of either mierotubules or intermediate filaments
same,effect on vimentin intermediate filaments,[2],did not affect the distribution of either mierotubules or intermediate filaments
COc1ccc(C[C@H]2NC(=O)/C=C/C[C@@H]([C@H](C)/C=C/c3ccccc3)OC(=O)[C@H](CC(C)C)OC(=O)C(C)(C)CNC2=O)cc1Cl [Cryptophycin 51],IC50,[1],3.5 to 5.8 nM
CC(C)C[C@@H]1OC(=O)[C@H](C)CNC(=O)[C@@H](Cc2ccc(O)c(Cl)c2)NC(=O)/C=C/C[C@@H]([C@H](C)[C@H]2O[C@@H]2c2ccccc2)OC1=O [Cryptophycin 16],% Body Wt. Loss at Nadir,Panc 03; [3],-1%
same,Cures,Panc 03; [3],0/5
same,Log Kill,Panc 03; [3],None
same,T/C,Panc 03; [3],89%
COc1ccc(CC2NC(=O)CCCC(C(C)C3OC3c3ccccc3)OC(=O)C(CC(C)C)OC(=O)C(C)CNC2=O)cc1Cl (centres unmarked) [Cryptophycin 35],% Body Wt. Loss at Nadir,Panc 03; [4],-2%
same,Cures,Panc 03; [4],0/5
same,Log Kill,Panc 03; [4],1.3
same,T/C,Panc 03; [4],11%
